The results in this text go back to ChEMBL document CHEMBL1212719, “In vivo effects of a GPR30 antagonist” (Nat Chem Biol, 2009).

The structures appear in SMILES notation. Activity calls are given as the source filed them. The calls are words filed in the database; no cut-off is given here.

By Ki is commonly meant the dissociation constant of the complex between target and ligand, obtained from inhibition or displacement.

For assay [1], the system named is Mus musculus. Briefly: Effect on uterine weight in ovariectomized C57B16 mouse at 0.1 to 2.4 nM, sc. It counts as functional, organism-based. The conditions noted are these: Uterus.
In assay [2] the test system is Mus musculus. Briefly: Inhibition of estrogen-induced GPR30-mediated epithelial uterine cell proliferation in sc dosed ovariectomized C57B16 mouse. It counts as functional, Uterine epithelium.
Assay [3] has as its system Mus musculus. The assay is described as follows: Inhibition of GPR30-mediated epithelial uterine cell proliferation in ovariectomized C57B16 mouse at 2.4 to 27 nM, sc relative to control. It counts as functional, organism-based. The conditions noted are these: Uterine epithelium.
For assay [4], the target named is T1, Estrogen receptor beta (Homo sapiens, UniProt Q92731). Briefly: Antagonist activity in ERbeta-transfected COS7 cells assessed as inhibition of E2-mediated PI(3)K activation. It counts as functional, cell-based. The conditions noted are these: COS-7.
T1 sequence (Q92731 whole entry): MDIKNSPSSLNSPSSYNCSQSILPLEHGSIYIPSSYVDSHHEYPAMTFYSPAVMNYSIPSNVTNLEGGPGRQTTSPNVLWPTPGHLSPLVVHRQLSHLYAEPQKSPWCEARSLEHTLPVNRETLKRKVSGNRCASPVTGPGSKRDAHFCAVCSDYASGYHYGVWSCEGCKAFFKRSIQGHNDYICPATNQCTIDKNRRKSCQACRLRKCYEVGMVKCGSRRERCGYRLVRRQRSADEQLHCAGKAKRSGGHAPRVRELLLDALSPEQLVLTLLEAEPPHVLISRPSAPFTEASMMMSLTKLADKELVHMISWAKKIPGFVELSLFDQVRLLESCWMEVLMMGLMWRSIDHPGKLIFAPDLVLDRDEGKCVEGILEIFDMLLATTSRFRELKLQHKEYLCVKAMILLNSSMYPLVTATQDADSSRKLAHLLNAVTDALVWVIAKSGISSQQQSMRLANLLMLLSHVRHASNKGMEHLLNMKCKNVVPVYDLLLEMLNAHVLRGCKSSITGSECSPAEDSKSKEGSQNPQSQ
In assay [5] the target is T1, Estrogen receptor beta. Briefly: Binding affinity to ERbeta receptor in COS7 cells by competitive binding assay. It counts as cell-based, COS-7.
Assay [6] deals with T2, Estrogen receptor (Homo sapiens) (UniProt P03372).
T2 sequence (whole entry): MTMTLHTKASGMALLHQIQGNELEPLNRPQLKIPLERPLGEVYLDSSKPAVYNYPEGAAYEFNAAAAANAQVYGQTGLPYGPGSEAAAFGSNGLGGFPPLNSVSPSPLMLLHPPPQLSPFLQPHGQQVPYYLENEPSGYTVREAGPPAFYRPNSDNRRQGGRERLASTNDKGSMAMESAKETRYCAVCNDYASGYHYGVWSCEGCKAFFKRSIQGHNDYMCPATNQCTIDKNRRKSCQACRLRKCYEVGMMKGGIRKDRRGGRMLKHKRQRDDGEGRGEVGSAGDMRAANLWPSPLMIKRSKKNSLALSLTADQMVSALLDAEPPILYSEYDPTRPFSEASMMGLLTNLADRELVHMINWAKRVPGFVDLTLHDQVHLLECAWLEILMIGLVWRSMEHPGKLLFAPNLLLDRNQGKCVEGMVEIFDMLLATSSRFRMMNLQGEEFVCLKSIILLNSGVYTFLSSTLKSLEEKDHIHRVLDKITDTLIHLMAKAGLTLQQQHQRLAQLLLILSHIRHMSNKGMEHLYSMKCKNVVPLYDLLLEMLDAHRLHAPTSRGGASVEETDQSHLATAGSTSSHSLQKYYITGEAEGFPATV
The assay is described as follows: Antagonist activity in ERalpha-transfected COS7 cells assessed as inhibition of E2-mediated PI(3)K activation. It counts as functional, cell-based. The settings on record: COS-7.

For assay [7], the system named is Mus musculus. The assay is described as follows: Inhibition of G1-induced GPR30-mediated epithelial uterine cell proliferation in sc dosed ovariectomized C57B16 mouse. It counts as functional, organism-based. The conditions noted are these: Uterine epithelium.
The subject of assay [8] is Mus musculus. The assay is described as follows: Effect on uterine weight in ovariectomized C57B16 mouse at 2.4 to 27 nM, sc. The conditions noted are these: Uterus. It counts as functional, organism-based.

As to `CC(=O)c1ccc2c(c1)[C@@H]1C=CC[C@@H]1[C@H](c1cc3c(cc1Br)OCO3)N2`, the outcome in the assay on Mus musculus [1] was inactive.
For the compound `Brc1cc2c(cc1[C@@H]1Nc3ccccc3[C@@H]3C=CC[C@@H]31)OCO2`, the “inhibition (INH)” value in the assay on Mus musculus [2] is reported as 50%. The outcome (in the assay on Mus musculus [3]; at Estrogen receptor beta [4]; in assay [6]; with Mus musculus [8]) was inactive. The Ki on Estrogen receptor beta [5] is more than 10 µM. In addition, the inhibition result in the assay with Mus musculus [7] is “Active; Dose-dependent effect”.
